From patent US7524503B2, “Human cytomegalovirus (HCMV) cytotoxic T cell epitopes, polyepitopes compositions comprising same and diagnostic and prophylactic and therapeutic uses therefor” (priority 2001, dated 2009)

Assays:
HLA A24 = test: MHC stabilization assay on T2 cells; format: cell-based, human; details: HLA A24 on transfected T2 cells; relative increase vs no peptide at 26° C.
HLA A3 = biological target: T1, HLA A3 (Homo sapiens, UniProt P04439); test: MHC stabilization assay on T2 cells; format: cell-based; details: HLA A3 on transfected T2 cells; relative increase vs no peptide at 26° C.
T1 construct: EGFP; expressed in transfected cells; host or cells: T2 cells
T1 sequence (P04439 25-365): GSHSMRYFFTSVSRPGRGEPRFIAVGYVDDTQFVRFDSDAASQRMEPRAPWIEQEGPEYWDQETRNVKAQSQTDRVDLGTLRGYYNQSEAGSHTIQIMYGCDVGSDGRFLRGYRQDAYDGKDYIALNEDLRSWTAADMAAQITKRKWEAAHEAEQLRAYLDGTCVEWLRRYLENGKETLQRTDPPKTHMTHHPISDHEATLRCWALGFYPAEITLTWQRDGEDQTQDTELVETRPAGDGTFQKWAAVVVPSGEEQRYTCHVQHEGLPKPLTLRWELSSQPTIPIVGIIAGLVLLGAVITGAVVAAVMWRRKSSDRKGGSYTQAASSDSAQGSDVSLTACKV
T1 sequence (P61769 21-119, further chain): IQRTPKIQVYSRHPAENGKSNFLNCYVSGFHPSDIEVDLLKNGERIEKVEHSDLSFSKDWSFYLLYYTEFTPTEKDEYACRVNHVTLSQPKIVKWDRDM

[1] = test system: PBMC from healthy HCMV seropositive donors; test: IFN-γ ELISPOT assay; format: cell-based, human; details: donor four; peptide 10 μg/ml
Summary of the method: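 IFN-γ-secreting T cells were counted as spots, with no-peptide control wells subtracted and means taken from triplicate wells. These spots came from healthy seropositive carriers' PBMC, 2.5×10^5 per well.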

Sequence | MSE (MHC stabilization efficiency) (HLA A24) | MSE (MHC stabilization efficiency) (HLA A3) | further results
YYVFHMPRCL (human cytomegalovirus gH CTL epitope peptide) | − (− = 0-50%) |  | 
SYENKTMQL (human cytomegalovirus gB CTL epitope peptide) | − (− = 0-50%) |  | 
IMREFNSYK (human cytomegalovirus gB CTL epitope peptide) |  | +++ (+++ = 200-300%) | ELISPOT Responses (SFC/10^6 PBMC) [1]: MB(202) SFC/10^6 PBMC
LYLCCGITL (human cytomegalovirus US6 CTL epitope peptide) | − (− = 0-50%) |  | 
AYIYTTYLL (human cytomegalovirus gB CTL epitope peptide) | − (− = 0-50%) |  | 
KYTQTEEKF (human cytomegalovirus IE1 CTL epitope peptide) | − (− = 0-50%) |  | 
NYLDLSALL (human cytomegalovirus gH CTL epitope peptide) | − (− = 0-50%) |  | 
VYYTSAFVF | − (− = 0-50%) |  | 
SYLKDSDFL (human cytomegalovirus gH CTL epitope peptide) | − (− = 0-50%) |  | 
CYSRPVVIF (human cytomegalovirus gB CTL epitope peptide) | − (− = 0-50%) |  | 
KLGGALQAK (human cytomegalovirus IE1 CTL epitope peptide) |  | +++ (+++ = 200-300%) | 
RLNTYALVSK (human cytomegalovirus gH CTL epitope peptide) |  | +++ (+++ = 200-300%) | 
QLNRHSYLK (human cytomegalovirus gH CTL epitope peptide) |  | +++ (+++ = 200-300%) | 
ALALFAAAR (human cytomegalovirus gH CTL epitope peptide) |  | − (− = 0-50%) | 
ALTVSEHVSY (human cytomegalovirus gH CTL epitope peptide) |  | ++ (++ = 100-199%) | 
SYVVTNQYL (human cytomegalovirus gH CTL epitope peptide) | − (− = 0-50%) |  | 

Sequence | MSE (MHC stabilization efficiency) (HLA A24) | MSE (MHC stabilization efficiency) (HLA A3) | further results
TYALVSKDL (human cytomegalovirus gH CTL epitope peptide) | − (− = 0-50%) |  | 
LVEPCARVY (human cytomegalovirus pp28 CTL epitope peptide) |  | NT/++ (++ = 100-199%) | 
SYRSFSQQL (human cytomegalovirus gH CTL epitope peptide) | − (− = 0-50%) |  | 
EYIVQIQNAF (human cytomegalovirus pp71 CTL epitope peptide) | +++ (+++ = 200-300%) |  | 
KMTATFLSK (human cytomegalovirus gB CTL epitope peptide) |  | +++ (+++ = 200-300%) | 
MYMHDSDDVL (human cytomegalovirus gH CTL epitope peptide) | − (− = 0-50%) |  | 
TVRSHCVSK (human cytomegalovirus pp50 CTL epitope peptide) |  | +++ (+++ = 200-300%) | 
LLLQRGPQY |  | +++ (+++ = 200-300%) | 
QVIGDQYVK |  | ++ (++ = 100-199%) | 
VYVTVDCNL (human cytomegalovirus US2 CTL epitope peptide) | − (− = 0-50%) |  | 
QYILGADPL (human cytomegalovirus IE1 CTL epitope peptide) | +++ (+++ = 200-300%) |  | 
ELLAGGRVF (human cytomegalovirus pp28 CTL epitope peptide) |  | − (− = 0-50%) | 
IIYTRNHEVK (human cytomegalovirus IE2 CTL epitope peptide) |  | +++ (+++ = 200-300%) | 
RLFPDATVP (human cytomegalovirus gH CTL epitope peptide) |  | − (− = 0-50%) | 
RLLDLAPNY (human cytomegalovirus pp28 CTL epitope peptide) |  | +++ (+++ = 200-300%) | 
